Results reported in PubChem BioAssay AID248 (DTP/NCI, 2004).
Where “and” joins values, the source holds several entries; their conditions need not be identical. Equal entries are not always repeated. Inconclusive results and toxic doses are left out. Rule as the data show it: active = T/C of 150% or more; inactive = T/C below 125%.

Tested on: L1210 leukemia ip in BDF1 mice, survival T/C
Assay: NCI In Vivo Anticancer Drug Screen. Data for tumor model L1210 Leukemia (intraperitoneal) in B6D2F1 (BDF1) mice
Details: endpoint: mean survival time, higher = longer survival
Procedure, shortened: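 Survival endpoint. Drug-treated group vs vehicle group, expressed as T divided by C. Tumor passaged by transplantation.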

[1] = dose: 100.0 mg/kg/injection, schedule: Q01DX001 (ip), vehicle: carboxymethylcellulose (CMC)
[2] = dose: 200.0 mg/kg/injection, schedule: Q01DX001 (ip), vehicle: carboxymethylcellulose (CMC)
[3] = dose: 400.0 mg/kg/injection, schedule: Q01DX001 (ip), vehicle: carboxymethylcellulose (CMC)
[4] = dose: 100.0 mg/kg/injection, schedule: Q01DX001 (ip), vehicle: Klucel (hydroxypropylcellulose) (HPC)
[5] = dose: 200.0 mg/kg/injection, schedule: Q01DX001 (ip), vehicle: Klucel (hydroxypropylcellulose) (HPC)
[6] = dose: 25.0 mg/kg/injection, schedule: Q01DX009 (ip), vehicle: water
[7] = dose: 50.0 mg/kg/injection, schedule: Q01DX009 (ip), vehicle: water
[8] = dose: 100.0 mg/kg/injection, schedule: Q01DX009 (ip), vehicle: water
[9] = dose: 200.0 mg/kg/injection, schedule: Q01DX009 (ip), vehicle: water
[10] = dose: 400.0 mg/kg/injection, schedule: Q01DX009 (ip), vehicle: saline with Tween-80
[11] = dose: 100.0 mg/kg/injection, schedule: Q01DX009 (ip), vehicle: Klucel (hydroxypropylcellulose) (HPC)
[12] = dose: 200.0 mg/kg/injection, schedule: Q01DX009 (ip), vehicle: Klucel (hydroxypropylcellulose) (HPC)
[13] = dose: 400.0 mg/kg/injection, schedule: Q01DX009 (ip), vehicle: Klucel (hydroxypropylcellulose) (HPC)
[14] = dose: 100.0 mg/kg/injection, schedule: Q01DX001 (ip), vehicle: saline
[15] = dose: 200.0 mg/kg/injection, schedule: Q01DX001 (ip), vehicle: saline
[16] = dose: 400.0 mg/kg/injection, schedule: Q01DX001 (ip), vehicle: saline
[17] = dose: 100.0 mg/kg/injection, schedule: Q04DX003 (ip), vehicle: saline
[18] = dose: 200.0 mg/kg/injection, schedule: Q04DX003 (ip), vehicle: saline
[19] = dose: 400.0 mg/kg/injection, schedule: Q04DX003 (ip), vehicle: saline
[20] = dose: 50.0 mg/kg/injection, schedule: Q04DX003 (ip), vehicle: Klucel (hydroxypropylcellulose) (HPC)
[21] = dose: 100.0 mg/kg/injection, schedule: Q04DX003 (ip), vehicle: Klucel (hydroxypropylcellulose) (HPC)
[22] = dose: 200.0 mg/kg/injection, schedule: Q04DX003 (ip), vehicle: Klucel (hydroxypropylcellulose) (HPC)
[23] = dose: 400.0 mg/kg/injection, schedule: Q04DX003 (ip), vehicle: Klucel (hydroxypropylcellulose) (HPC)
[24] = dose: 100.0 mg/kg/injection, schedule: Q04DX002 (ip), vehicle: Klucel (hydroxypropylcellulose) (HPC)
[25] = dose: 200.0 mg/kg/injection, schedule: Q04DX002 (ip), vehicle: Klucel (hydroxypropylcellulose) (HPC)
[26] = dose: 400.0 mg/kg/injection, schedule: Q04DX002 (ip), vehicle: Klucel (hydroxypropylcellulose) (HPC)
[27] = dose: 50.0 mg/kg/injection, schedule: Q01DX001 (ip), vehicle: saline

Measured: T/C

CCCCCCCCCCCCCC(CCCCCC)C1CCCCC1 (stereo unspecified)
inactive: dose: 100.0 mg/kg/injection, schedule: Q01DX001 (ip), vehicle: acetone 100 % of control | dose: 200.0 mg/kg/injection, schedule: Q01DX001 (ip), vehicle: acetone 106 % of control | dose: 400.0 mg/kg/injection, schedule: Q01DX001 (ip), vehicle: acetone 101 % of control

CN(c1ccccc1)c1ccc([N+](=O)[O-])cc1[N+](=O)[O-]
inactive: [1] 98 % of control | [2] 102 % of control | [3] 107 % of control

c1cnc2c(c1)Oc1cccnc1N2
inactive: dose: 50.0 mg/kg/injection, schedule: Q01DX001 (ip), vehicle: Klucel (hydroxypropylcellulose) (HPC) 98 % of control | [4] 92 % of control | [5] 90 % of control

COc1cccc2c1C(=O)c1c(OC)c(CO)cc(OC)c1C2=O
inactive: dose: 12.5 mg/kg/injection, schedule: Q01DX009 (ip), vehicle: water 93 % of control | [6] 91 % of control | [7] 87 % of control | [8] 97 % of control | [9] 95 % of control

Cc1ccc2nc(-c3ccccc3N)[nH]c2c1
inactive: dose: 100.0 mg/kg/injection, schedule: Q01DX009 (ip), vehicle: saline with Tween-80 97 % of control | dose: 200.0 mg/kg/injection, schedule: Q01DX009 (ip), vehicle: saline with Tween-80 92 % of control | [10] 92 % of control

O=C(Nc1ccc(Cl)c(Cl)c1)Oc1cccc(NC(=S)Nc2ccccc2)c1
inactive: [11] 94 % of control | [12] 94 % of control | [13] 94 % of control

S=P(c1ccccc1)(c1cccc2ccccc12)c1cccc2ccccc12
inactive: [14] 93 % of control | [15] 96 % of control | [16] 93 % of control

C#CCC(C)OS(=O)(=O)c1ccc(C)cc1 (stereo unspecified)
inactive: [14] 98 % of control | [17] 93 % of control | [15] 102 % of control | [18] 93 % of control | [16] 98 % of control | [19] 91 % of control

CCC(NCC(C)C)NCC(C)C
inactive: dose: 12.5 mg/kg/injection, schedule: Q04DX003 (ip), vehicle: saline 91 % of control | dose: 25.0 mg/kg/injection, schedule: Q04DX003 (ip), vehicle: saline 105 % of control | dose: 50.0 mg/kg/injection, schedule: Q04DX003 (ip), vehicle: saline 86 % of control

CC1=NN(c2ccccc2)C(=O)C1N=Nc1ccc(S(=O)(=O)Nc2nnc(C)s2)cc1 (stereo unspecified)
inactive: [1] 98 % of control | [2] 106 % of control | [3] 93 % of control

O=c1cc(CCl)occ1O
inactive: [20] 95 % of control | [21] 98 % of control | [22] 97 % of control

CCOC(=O)Nc1ccccc1
inactive: [11] 97 % of control | [21] 93 % of control | [12] 103 % of control | [22] 93 % of control | [13] 103 % of control | [23] 88 % of control

O=c1c(CO)c[nH]cc1CO
inactive: [14] 101 % of control | [15] 103 % of control | [16] 107 % of control

O=C(/C=C\c1ccccc1)OCc1ccccc1CN1CCCCC1
inactive: [24] 108 % of control | [25] 116 % of control | [26] 90 % of control

COc1cc(N2CCOCC2)ccc1[N+](=O)[O-]
inactive: dose: 50.0 mg/kg/injection, schedule: Q01DX009 (ip), vehicle: saline 105 % of control | dose: 100.0 mg/kg/injection, schedule: Q01DX009 (ip), vehicle: saline 103 % of control | [17] 102 % of control | dose: 200.0 mg/kg/injection, schedule: Q01DX009 (ip), vehicle: saline 105 % of control | [18] 103 % of control

Cc1ccc(N2C(=O)c3cc4ccccc4c(-c4ccccn4)c3C2=O)cc1
inactive: dose: 12.5 mg/kg/injection, schedule: Q04DX003 (ip), vehicle: Klucel (hydroxypropylcellulose) (HPC) 103 % of control | dose: 25.0 mg/kg/injection, schedule: Q04DX003 (ip), vehicle: Klucel (hydroxypropylcellulose) (HPC) 103 % of control | [20] 103 % of control | [21] 94 % of control

OCCN(CCO)c1cc(OCc2ccccc2)cc(OCc2ccccc2)c1
inactive: [6] 94 % of control | [7] 97 % of control | [8] 101 % of control | [9] 86 % of control | dose: 400.0 mg/kg/injection, schedule: Q01DX009 (ip), vehicle: water 95 % of control

Cc1ncc(C#N)n1Cc1ccccc1
inactive: [11] 98 % of control and 101 % of control | [24] 101 % of control and 113 % of control | [21] 109 % of control | [12] 101 % of control and 103 % of control | [25] 103 % of control and 108 % of control | [22] 104 % of control | [13] 101 % of control | [26] 103 % of control and 109 % of control | [23] 111 % of control

C=Cc1c(C)c2cc3[nH]c(cc4nc(cc5nc(cc1[nH]2)C(C)=C5CCC(=O)O)C(CCC(=O)O)=C4C)c(C)c3C=C
inactive: dose: 100.0 mg/kg/injection, schedule: Q04DX003 (ip), vehicle: dextrose 96 % of control | dose: 200.0 mg/kg/injection, schedule: Q04DX003 (ip), vehicle: dextrose 100 % of control | [10] 88 % of control | dose: 400.0 mg/kg/injection, schedule: Q04DX003 (ip), vehicle: dextrose 100 % of control

CCCCCCCCCOCC(O)COc1ccccc1[N+](=O)[O-] (stereo unspecified)
inactive: dose: 100.0 mg/kg/injection, schedule: Q04DX003 (ip), vehicle: saline sonified 113 % of control | dose: 200.0 mg/kg/injection, schedule: Q04DX003 (ip), vehicle: saline sonified 95 % of control | dose: 400.0 mg/kg/injection, schedule: Q04DX003 (ip), vehicle: saline sonified 98 % of control

CCN(CC)CC(=O)NCC(CC)(CCN1CCOCC1)c1cccc2ccccc12 (stereo unspecified)
inactive: [17] 97 % of control | [18] 95 % of control

O=C1Nc2ccccc2C2Cc3c([nH]c4ccccc34)CC12 (stereo unspecified)
inactive: [27] 115 % of control | [14] 104 % of control | [15] 104 % of control | [16] 89 % of control

O=C(n1ccnc1)C(F)(F)C(F)(F)C(F)(F)F
inactive: dose: 100.0 mg/kg/injection, schedule: Q01DX001 (ip), vehicle: saline sonified 101 % of control | [17] 96 % of control | dose: 200.0 mg/kg/injection, schedule: Q01DX001 (ip), vehicle: saline sonified 110 % of control | [18] 96 % of control | dose: 400.0 mg/kg/injection, schedule: Q01DX001 (ip), vehicle: saline sonified 106 % of control | [19] 89 % of control

CC12CCC(=O)C=C1CCC1C2C(=O)CC2(C)C1CCC2(O)C(=O)COC(=O)c1cc([N+](=O)[O-])cc([N+](=O)[O-])c1N1CC1 (stereo unspecified)
inactive: dose: 60.0 mg/kg/injection, schedule: Q01DX015 (ip), vehicle: saline 94 % of control | dose: 90.0 mg/kg/injection, schedule: Q01DX015 (ip), vehicle: saline 96 % of control | dose: 135.0 mg/kg/injection, schedule: Q01DX015 (ip), vehicle: saline 92 % of control | dose: 200.0 mg/kg/injection, schedule: Q01DX015 (ip), vehicle: saline 100 % of control

COc1ccc(C(N)C(=O)O)cc1 (stereo unspecified)
inactive: [27] 94 % of control | dose: 75.0 mg/kg/injection, schedule: Q01DX009 (ip), vehicle: Klucel (hydroxypropylcellulose) (HPC) 110 % of control | [4] 96 % of control | [14] 94 % of control | dose: 150.0 mg/kg/injection, schedule: Q01DX009 (ip), vehicle: Klucel (hydroxypropylcellulose) (HPC) 113 % of control | [5] 97 % of control | [15] 96 % of control | dose: 300.0 mg/kg/injection, schedule: Q01DX009 (ip), vehicle: Klucel (hydroxypropylcellulose) (HPC) 101 % of control | dose: 400.0 mg/kg/injection, schedule: Q01DX001 (ip), vehicle: Klucel (hydroxypropylcellulose) (HPC) 92 % of control | [16] 96 % of control
